According to patent publication US11732048B2, “Anti-axl antagonistic antibodies” (BERGEN TEKNOLOGIOVERFØRING AS, priority 2016, dated 2023):
Like-named read-outs stand apart in the source and are kept apart here.

Test system: MDA-MB-231 cells
Assay: Tumour cell killing using antibody-Saporin conjugates (XTT/PMS viability)
Type: cell-based, human
Protocol: For generation of immunotoxin, the chimeric MAb was non-covalently coupled to a plant toxin Saporin using FabFc-ZAP human conjugate (4.5 nM final concentration) (Advanced Targeting Systems, Cat. no. IT-65). The effect of chAb-Saporin internalization on tumour cell viability was tested using Axl-positive tumour cell line MDA-MB-231 (human triple negative breast carcinoma). Eight hundred cells were seeded per well in 96-well plates in DMEM/F-12 media supplied with 10% FBS, L-glutamine (4 mM), streptomycin (5 μg/ml) and penicillin (5 U/ml) and allowed to attach for 16 hours. The cells were incubated with different dilutions of immunotoxin chAb-Saporin for 72 hrs. The viability of the cells was determined by performing an XTT/PMS assay using a CLARIOstar® microplate reader (BMG LABTECH)
Unconjugated Saporin and an isotype control antibody (human IgG1) coupled to Saporin (control SAP) were used as negative controls.
Tumour cell killing using antibody-Saporin conjugates performed as described in Example 20. A comparison of two variants of humanised 10G5 and YW327.6S2 was performed.

Question: Saporin was tested. Which EC50 (Table 4, antibody coupled to Saporin via FabFc-ZAP, MDA-MB-231, 72 hrs, read-out: EC50 (effective concentration leading to 50% cell killing)) did it give?
Answer: 99.1 nM

Question: What about the EC50 (Table 5, antibody-Saporin conjugates as in Example 20, MDA-MB-231, read-out: EC50 (cell killing)) of the same substance?
Answer: 247 nM
